Experimental data from paper PMC7033111, “Rational design of novel benzisoxazole derivatives with acetylcholinesterase inhibitory and serotoninergic 5-HT4 receptors activities for the treatment of Alzheimer’s disease” (Scientific Reports, 2020).
“And” between values parts separate entries of the source, which are not always exact repeats. Identical values can stand only once. Like-named read-outs stand apart in the source and are kept apart here.

How the values were obtained:
5-HT4dR = conditions: cited from earlier work
[1] = molecular target: T1, HA-tagged human 5-HT4 receptor (Homo sapiens, UniProt Q13639); assay: cAMP production, competition assay in antagonist mode vs serotonin, transfected COS-7 cells; type: cell-based
T1 construct: HA; expressed in transfected cells; host or cells: COS-7 cells (ATCC CRL-1651), transient transfection
Description: (§1) Figure 5 Determination of the 5-HT4 pharmacological profiles for compounds 16, 32a and 33 by quantification of cAMP production. (A) Assay to determine the agonism activity (with serotonin and the partial agonist RS-67333 as references). (B) Assay to determine the antagonism activity (with the antagonist GR113808 as reference). Data presented are the mean of three independent experiments performed in duplicate.
(§2) COS-7 cells were purchased from ATCC (ATCC CRL-1651; LGC […], Molsheim, France). T were grown in Dulbecco’s modified Eagle medium (DMEM) supplemented with 10% dialyzed fetal calf serum (dFCS) and antibiotics. Cells were transiently transfected with plasmid encoding HA-tagged human 5-HT4 receptor, then seeded in 96-well plates (35,000 cells/well). 24 hrs after transfection, cells were washed once with 200 µl of HBS (20 mM HEPES; 150 mM NaCl; 4.2 mM KCl; 0.9 mM CaCl2; 0.5 mM MgCl2; 0.1% glucose; 0.1% BSA) and, after HBS removal, exposed to the indicated concentrations of 5-HT4R ligands in the presence of 0.1 mM of the phosphodiesterase inhibitor RO-20-1724, at 37 °C in 100 µl of HBS. After 10 min, cells were then lysed by addition of the same volume of Triton-X100 (0.1%) during 30 min at 37 °C. The competition assay in antagonist mode was performed as follows: after one wash in 200 µl of HBS, cells were exposed to 5-HT4R ligands at twice the indicated concentration, at 37 °C in 50 µl of HBS. After 7 min, serotonin (final concentration of 5.10^−7M) was added in 50 µl of HBS in the presence of the phosphodiesterase inhibitor RO-20-1724 (final concentration of 0.1 mM). After 10 min, cells were then lysed by addition of the same volume of Triton-X100 (0.1%) during 30 min at 37 °C. Quantification of cAMP production was performed by HTRF by using the cAMP Dynamic kit (Cisbio Bioassays) according to the manufacturer’s instructions

[2] = molecular target: T2, hAChE (AChE from human erythrocytes) (Homo sapiens, UniProt P22303); assay: hAChE inhibition, spectrometric Ellman method; type: biochemical
T2 construct: AChE from human erythrocytes; purchased Sigma Aldrich; host or cells: human erythrocytes (tissue-derived enzyme)
Procedure: Inhibitory capacity of compounds on AChE biological activity was evaluated through the use of the spectrometric method of Ellman[39]. Acetylthiocholine and 5,5-dithiobis-(2-nitrobenzoic) acid (DTNB) were purchased from Sigma Aldrich. AChE from human erythrocytes (buffered aqueous solution, ≥500 units/mg protein (BCA), Sigma Aldrich) was diluted in 20 mM HEPES buffer pH 8, 0.1% Triton X-100 such as to have enzyme solution with 0.25 unit/mL enzyme activity. In the procedure, 100 μL of 0.3 mM DTNB dissolved in phosphate buffer pH 7.4 were added into the 96 wells plate followed by 50 μL of test compound solution and 50 μL of enzyme ([…]). After 5 min of preincubation at 25 °C, the reaction was then initiated by the injection of 50 μL of 10 mM acetylthiocholine iodide solution. The hydrolysis of acetylthiocholine was monitored by the formation of yellow 5-thio-2-nitrobenzoate anion as the result of the reaction of DTNB with thiocholine, released by the enzymatic hydrolysis of acetylthiocholine, at a wavelength of 412 nm using a 96-well microplate plate reader (TECAN Infinite M200, Lyon, France). Test compounds were dissolved in analytical grade DMSO. Donepezil was used as a reference standard. The rate of absorbance increase at 412 nm was followed every minute for 10 min. Assays were performed with a blank containing all components except acetylthiocholine, in order to account for non-enzymatic reaction. The reaction slopes were compared and the percent inhibition due to the presence of test compounds was calculated by the following expression: 100 − (vi/v0 × 100) where vi is the rate calculated in the presence of inhibitor and v0 is the enzyme activity.
For the compounds with significant inhibition (≥50%), IC50 values were determined graphically by plotting the % inhibition versus the logarithm of six inhibitor concentrations in the assay solution using the Origin software.

[3] = molecular target: T3, human 5-HT4R (5-HT4(b) receptor membranes) (Homo sapiens, UniProt Q13639); assay: h5-HT4R competition binding with [3H]-GR113808; conditions: for inhibition: 0.2 nM [3H]-GR113808
T3 construct: purchased Millipore HTS110M
Procedure: The competition studies used membrane preparations made from proprietary stable recombinant cell lines expressing the 5-HT4(b) receptor to ensure high-level of GPCR surface expression (HTS110M, Millipore). Membranes (2.5 µg protein) were incubated in duplicate at 25 °C for 60 min in the absence or the presence of 10^–6 or 10^–8M of each drug and 0.2 nM [^3H]-GR 113808 (VT 240, ViTrax) in 25 mM Tris buffer (pH 7.4, 25 °C). At the end of the incubation, homogenates were filtered through Whatman GF/C filters (Alpha Biotech) pre-soaked with 0.5% polyethylenimine using a Brandel cell harvester. Filters were subsequently washed three times with 4 mL of ice-cold 25 mM Tris buffer (pH 7.4, 4 °C). Non-specific binding was evaluated in parallel in the presence of 30 μM serotonin.
For some of these compounds, affinity constants were calculated from five-point inhibition curves using the EBDA-Ligand software and expressed as Ki ± SD[41].

[4] = molecular target: T1, HA-tagged human 5-HT4 receptor; assay: cAMP production, agonist mode, transfected COS-7 cells; type: cell-based; conditions: for Top AMPc / EC50 / Log(EC50): agonist mode; for EC50: unit not given; for Log(EC50): given as Log(EC50)
Description: as §1, §2

hAChE = system: hAChE; set-up: method as in PMID 25157130; conditions: donecopride reference value; cited from earlier work
[5] = set-up: method as in PMID 25157130; conditions: mice; cited from earlier work
5-HT4R = conditions: cited from earlier work
h5-HT4eR = conditions: donecopride reference value; read-out: 5-HT4R Ki; cited from earlier work
BuChE = system: BuChE; set-up: method as in PMID 8064800; conditions: cited from earlier work
AChE = conditions: read-out: AChE IC50; cited from earlier work
[6] = set-up: method as in PMID 8064800; conditions: cited from earlier work
[7] = set-up: method as in PMID 8064800; conditions: mouse; cited from earlier work
[8] = individual experiments HP5, HP6, HP7

T3 sequence (Q13639 whole entry): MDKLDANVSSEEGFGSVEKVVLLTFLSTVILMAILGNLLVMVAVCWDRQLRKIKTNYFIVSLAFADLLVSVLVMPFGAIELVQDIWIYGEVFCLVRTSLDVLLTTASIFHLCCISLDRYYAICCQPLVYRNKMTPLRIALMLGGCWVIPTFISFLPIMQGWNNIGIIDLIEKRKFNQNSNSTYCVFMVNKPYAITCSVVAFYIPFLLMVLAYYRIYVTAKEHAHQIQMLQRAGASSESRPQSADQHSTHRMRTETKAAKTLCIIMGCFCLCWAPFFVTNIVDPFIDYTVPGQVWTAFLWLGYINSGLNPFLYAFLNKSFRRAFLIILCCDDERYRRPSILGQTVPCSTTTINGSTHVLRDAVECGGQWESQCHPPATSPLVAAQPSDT
T1 sequence (Q13639 whole entry): as above
T2 sequence (P22303 other isoform, or with tags, fused parts or gaps): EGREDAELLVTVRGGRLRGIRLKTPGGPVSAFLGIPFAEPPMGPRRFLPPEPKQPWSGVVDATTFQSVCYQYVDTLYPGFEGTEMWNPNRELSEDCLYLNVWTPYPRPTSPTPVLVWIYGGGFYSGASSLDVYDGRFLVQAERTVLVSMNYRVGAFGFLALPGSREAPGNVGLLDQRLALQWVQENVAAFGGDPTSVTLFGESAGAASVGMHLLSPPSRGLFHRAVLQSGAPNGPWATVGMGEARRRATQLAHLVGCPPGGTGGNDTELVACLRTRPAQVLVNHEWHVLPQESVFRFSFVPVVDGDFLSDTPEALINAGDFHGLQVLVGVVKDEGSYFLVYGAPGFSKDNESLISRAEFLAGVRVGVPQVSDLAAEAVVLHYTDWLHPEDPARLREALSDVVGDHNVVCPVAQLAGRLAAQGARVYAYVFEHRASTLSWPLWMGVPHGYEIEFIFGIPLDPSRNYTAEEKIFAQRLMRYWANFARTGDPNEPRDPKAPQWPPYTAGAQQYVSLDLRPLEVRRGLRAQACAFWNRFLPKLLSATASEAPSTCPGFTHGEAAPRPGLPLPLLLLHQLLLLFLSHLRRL

**Q.** For `OC1(CN2CCC(COc3noc4cccc(O[C@@H]5CCOC5)c34)CC2)CCOCC1` [[A]], which “5-HT4dR Emax” value (5-HT4dR) is on record?
**A.** 24%

**Q.** And the EC50 (5-HT4dR)?
**A.** 0.2 nM

**Q.** What does the source list for `COc1cccc2onc(OCC3CCN(CC(C)C)CC3)c12` [Compound 16]?
**A.** IC50 ([1]; IC50 (5-HT4R antagonist, cAMP production), COS-7 cells, serotonin 5.10^−7 M, mean of three experiments): 5.6 ± 2.2 nM; IC50 ([1]; IC50, antagonist mode, individual experiments HP8, HP10, HP11, unit inferred): 5.07 nM and 2.01 nM and 9.78 nM; IC50 ([1]; Log(IC50), antagonist mode, Moy., printed as Log(IC50), negative): 5.01 nM; Bott. AMPc ([1]; antagonist mode, Moy.): 31%; Bott. AMPc ([1]; antagonist mode, individual experiments HP8, HP10, HP11): 39.69% and 29.62% and 24.98%; 5-HT4 pharmacological profile (antagonism assay) ([1]; cAMP production, COS-7 cells): highly potent antagonist; inhibition at 1 µM ([2]; 10^−6 M compound): 23%; inhibition of the enzyme (AChE), in words ([2]; statement in discussion): did not show any inhibition; Ki [3]: 4.1 ± 0.4 nM; inhibition ([3]; 10^−6 M compound, read-out: h5-HT4R % inhibition at 10^−6 M (converted)): 100%; inhibition ([3]; 10^−8 M compound, read-out: h5-HT4R % inhibition at 10^−8 M (converted)): 100%; Top AMPc ([4]; Moy.): 4%; EC50 ([4]; Moy. (mean of HP5-HP7)): ns; Log(EC50) ([4]; Moy., negative): ns; Top AMPc [4, 8]: 5.63% and 0.00% and 6.91%; Log(EC50) [4, 8]: ns; EC50 [4, 8]: ns; 5-HT4 pharmacological profile (agonism assay) ([4]; cAMP production, COS-7 cells): not agonist

**Q.** For `COc1cc(N)c(Cl)cc1C(=O)CCC1CCN(CC2CCCCC2)CC1` [donecopride], which IC50 (hAChE) is on record?
**A.** 16 ± 5 nM

**Q.** And the “in vivo effects, object recognition test” value [5]?
**A.** improvement of memory performances

**Q.** What about the “% of control agonist response (5-HT4R)” value (5-HT4R) of the same compound?
**A.** 48%

**Q.** What about the Ki (h5-HT4eR) of the same compound?
**A.** 8.5 ± 0.3 nM

**Q.** Which IC50 (BuChE) does the source give for `CC(=O)Nc1ccc2c(CCC3CCN(Cc4ccccc4)CC3)noc2c1` [[B]] here?
**A.** 9000 nM

**Q.** What about the “ratio BuAChE/AChE” value (BuChE; selectivity ratio) of the same compound?
**A.** 3200

**Q.** What about the IC50 (AChE) of the same compound?
**A.** 2.8 nM

**Q.** And the “elevation of ACh in mouse” value [6]?
**A.** dose-dependent elevation of ACh

**Q.** And the “effect on amnesia, passive avoidance model” value [7]?
**A.** reversion of amnesia
